Drawing on US8471005B2 (Cephalon, Inc., priority 2008, dated 2013), this text covers IC50 for twelve compounds.

Some results are limits rather than exact numbers.

In one experiment the target is T1, ALK (Homo sapiens, UniProt Q9UM73).
T1 construct: host or cells: baculovirus expression system
In words: ALK Kinase Assay (ELISA/TRF, PLC-γ substrate). The conditions noted are these: ALK Kinase Inhibition; read-out: ALK Potency. It is filed as biochemical. Summed up: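 Read-out is time-resolved fluorescence from a Eu-N1-labeled PT66 antibody that binds phosphorylated PLC-γ, the substrate coated at 10 μg/mL in TBS. ALK at 30 ng/ml starts the reaction, which runs 15 minutes at 37° C.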

In another experiment the target is T2, JAK2 (Homo sapiens, UniProt O60674).
T2 construct: host or cells: baculovirus expression system
T2 sequence (O60674 whole entry): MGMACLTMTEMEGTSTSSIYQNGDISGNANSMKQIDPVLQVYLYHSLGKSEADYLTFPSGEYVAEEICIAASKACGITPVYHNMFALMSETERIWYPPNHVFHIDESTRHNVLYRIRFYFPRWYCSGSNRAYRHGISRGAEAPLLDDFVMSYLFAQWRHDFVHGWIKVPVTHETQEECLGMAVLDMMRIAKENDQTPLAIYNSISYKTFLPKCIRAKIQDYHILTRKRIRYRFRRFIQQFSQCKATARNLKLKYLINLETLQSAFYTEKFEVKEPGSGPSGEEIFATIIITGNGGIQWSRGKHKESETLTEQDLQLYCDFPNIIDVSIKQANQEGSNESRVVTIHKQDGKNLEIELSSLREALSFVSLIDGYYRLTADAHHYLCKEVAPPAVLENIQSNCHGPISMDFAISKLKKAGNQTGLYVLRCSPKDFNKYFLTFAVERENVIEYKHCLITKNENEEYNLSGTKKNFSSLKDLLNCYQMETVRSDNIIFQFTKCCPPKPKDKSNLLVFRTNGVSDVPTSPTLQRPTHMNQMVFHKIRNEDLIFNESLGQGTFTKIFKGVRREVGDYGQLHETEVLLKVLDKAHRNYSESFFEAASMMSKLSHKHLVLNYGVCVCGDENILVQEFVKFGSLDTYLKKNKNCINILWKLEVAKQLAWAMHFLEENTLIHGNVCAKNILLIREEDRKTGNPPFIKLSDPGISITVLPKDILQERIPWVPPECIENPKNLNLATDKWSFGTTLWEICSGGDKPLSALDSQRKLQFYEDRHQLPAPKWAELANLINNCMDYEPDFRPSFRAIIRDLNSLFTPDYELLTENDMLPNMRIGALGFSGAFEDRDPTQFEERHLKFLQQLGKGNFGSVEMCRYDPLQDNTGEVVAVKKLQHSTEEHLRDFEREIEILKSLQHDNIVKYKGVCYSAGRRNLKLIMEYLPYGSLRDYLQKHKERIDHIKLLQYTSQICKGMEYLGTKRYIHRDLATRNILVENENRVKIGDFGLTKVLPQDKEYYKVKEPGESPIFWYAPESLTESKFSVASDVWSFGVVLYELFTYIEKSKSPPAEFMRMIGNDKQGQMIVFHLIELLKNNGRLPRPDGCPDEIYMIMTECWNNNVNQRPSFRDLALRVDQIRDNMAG
In words: Recombinant Human JAK2 Kinase Assay (TRF). It is filed as biochemical. Conditions: JAK2 Kinase Inhibition; read-out: JAK2 Potency. In a few lines: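 Europium-labelled PY100 antibody reported tyrosine phosphorylation of a Neutravidin-captured biotinyl 15-mer peptide by JAK2 (baculovirus-expressed, 15 ng/ml). Conditions: 20 mM HEPES pH 7.2, 0.2 μM ATP, 1 mM MnCl2, 0.1% BSA, DMSO 2.5% final, 20 min at room temperature.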

T1 sequence (Q9UM73 19-1620): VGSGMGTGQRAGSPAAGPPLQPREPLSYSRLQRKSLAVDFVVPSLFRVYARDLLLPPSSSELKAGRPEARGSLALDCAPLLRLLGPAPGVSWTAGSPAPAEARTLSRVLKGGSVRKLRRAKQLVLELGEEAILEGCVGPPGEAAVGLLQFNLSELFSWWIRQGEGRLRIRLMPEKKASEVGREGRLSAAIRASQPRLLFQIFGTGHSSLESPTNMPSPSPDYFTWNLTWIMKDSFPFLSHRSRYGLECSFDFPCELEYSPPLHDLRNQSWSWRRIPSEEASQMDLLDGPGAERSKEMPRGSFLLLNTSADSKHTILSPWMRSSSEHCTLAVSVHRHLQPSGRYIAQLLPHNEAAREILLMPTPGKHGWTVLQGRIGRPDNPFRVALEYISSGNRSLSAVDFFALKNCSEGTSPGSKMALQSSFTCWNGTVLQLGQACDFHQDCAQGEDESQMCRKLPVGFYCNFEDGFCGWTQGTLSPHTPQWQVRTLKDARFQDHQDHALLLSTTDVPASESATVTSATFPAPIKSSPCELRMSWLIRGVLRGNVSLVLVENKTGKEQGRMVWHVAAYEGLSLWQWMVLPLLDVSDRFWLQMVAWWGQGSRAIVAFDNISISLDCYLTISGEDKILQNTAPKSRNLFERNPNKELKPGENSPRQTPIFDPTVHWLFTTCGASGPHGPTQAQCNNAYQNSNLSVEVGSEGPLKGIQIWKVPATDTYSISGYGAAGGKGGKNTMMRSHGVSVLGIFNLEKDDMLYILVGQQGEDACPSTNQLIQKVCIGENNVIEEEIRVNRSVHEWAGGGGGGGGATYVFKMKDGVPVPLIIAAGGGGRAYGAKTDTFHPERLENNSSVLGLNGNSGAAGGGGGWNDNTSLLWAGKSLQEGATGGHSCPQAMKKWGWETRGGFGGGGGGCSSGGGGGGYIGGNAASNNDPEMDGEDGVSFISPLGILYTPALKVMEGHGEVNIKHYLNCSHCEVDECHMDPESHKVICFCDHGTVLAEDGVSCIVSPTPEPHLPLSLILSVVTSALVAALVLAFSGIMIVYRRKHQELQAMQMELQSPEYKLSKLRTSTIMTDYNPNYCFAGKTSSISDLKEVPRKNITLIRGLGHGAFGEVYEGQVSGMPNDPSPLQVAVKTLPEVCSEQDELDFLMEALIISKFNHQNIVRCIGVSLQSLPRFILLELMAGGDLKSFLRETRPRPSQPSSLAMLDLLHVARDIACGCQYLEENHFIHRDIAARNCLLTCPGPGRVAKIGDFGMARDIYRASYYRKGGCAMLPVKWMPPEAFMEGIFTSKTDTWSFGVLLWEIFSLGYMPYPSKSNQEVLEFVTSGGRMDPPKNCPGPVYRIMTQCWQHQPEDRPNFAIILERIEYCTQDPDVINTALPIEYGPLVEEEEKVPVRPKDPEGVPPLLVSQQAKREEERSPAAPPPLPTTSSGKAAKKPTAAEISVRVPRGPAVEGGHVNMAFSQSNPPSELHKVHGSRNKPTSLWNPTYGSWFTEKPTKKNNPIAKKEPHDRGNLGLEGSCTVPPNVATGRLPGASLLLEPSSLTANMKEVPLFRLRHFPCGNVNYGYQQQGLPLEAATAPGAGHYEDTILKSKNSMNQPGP

Turning to `CN1CCN(c2ccc(Nc3ncc4ccc(-c5ccccc5Cl)n4n3)cc2)CC1` [Example 25, [7-(2-Chloro-phenyl)-pyrrolo[2,1-f][1,2,4]triazin-2-yl]-[4-(4-methyl-piperazin-1-yl)-phenyl]-amine], the IC50 at ALK and at JAK2 was less than 100 nM throughout.
On to `CN1CCN(c2ccc(Nc3ncc4ccc(-c5cccc(Cl)c5)n4n3)cc2)CC1` [Example 26, [7-(3-Chloro-phenyl)-pyrrolo[2,1-f][1,2,4]triazin-2-yl]-[4-(4-methyl-piperazin-1-yl)-phenyl]-amine], for which the IC50 at ALK and at JAK2 was less than 100 nM throughout.
As to `CN1CCN(c2ccc(Nc3ncc4ccc(-c5cccnc5)n4n3)cc2)CC1` [Example 27, [4-(4-Methyl-piperazin-1-yl)-phenyl]-(7-pyridin-3-yl-pyrrolo[2,1-f][1,2,4]triazin-2-yl)-amine], the IC50 was 100 to 1000 nM on ALK and less than 100 nM at JAK2.
The like results for `c1ccc(-c2ccc3cnc(NCCN4CCOCC4)nn23)cc1` [Example 28, (2-Morpholin-4-yl-ethyl)-(7-phenyl-pyrrolo[2,1-f][1,2,4]triazin-2-yl)-amine] were, in that order, more than 10000 nM and 1000 to 10000 nM.
On the same counts, the results for `c1ccc(-c2ccc3cnc(NCCCN4CCOCC4)nn23)cc1` [Example 29, (3-Morpholin-4-yl-propyl)-(7-phenyl-pyrrolo[2,1-f][1,2,4]triazin-2-yl)-amine] are more than 10000 nM and 1000 to 10000 nM.
As to `COCCN1CCc2ccc(Nc3ncc4ccc(-c5ccccc5OC)n4n3)cc2CC1` [Example 30, [3-(2-Methoxy-ethyl)-2,3,4,5-tetrahydro-1H-benzo[d]azepin-7-yl]-[7-(2-methoxy-phenyl)-pyrrolo[2,1-f][1,2,4]triazin-2-yl]-amine], the IC50 on ALK and at JAK2 was less than 100 nM each time.
For `COCCN1CCc2ccc(Nc3ncc4ccc(-c5ccccc5S(=O)(=O)N(C)C)n4n3)cc2CC1` [Example 31, 2-{2-[3-(2-Methoxy-ethyl)-2,3,4,5-tetrahydro-1H-benzo[d]azepin-7-ylamino]-pyrrolo[2,1-f][1,2,4]triazin-7-yl}-N,N-dimethyl-benzenesulfonamide], the IC50 on ALK is 100 to 1000 nM; on JAK2 it was less than 100 nM.
The like results for `COCCN1CCc2ccc(Nc3ncc4ccc(-c5ccccc5S(=O)(=O)N5CCCC5)n4n3)cc2CC1` [Example 32, [3-(2-Methoxy-ethyl)-2,3,4,5-tetrahydro-1H-benzo[d]azepin-7-yl]-{7-[2-(pyrrolidine-1-sulfonyl)-phenyl]-pyrrolo[2,1-f][1,2,4]triazin-2-yl}-amine] were, in that order, 100 to 1000 nM and less than 100 nM.
On the same counts, the results for `COc1cc(N2CCN(C)CC2)ccc1Nc1ncc2ccc(-c3ccccc3OC)n2n1` [Example 33, [2-Methoxy-4-(4-methyl-piperazin-1-yl)-phenyl]-[7-(2-methoxy-phenyl)-pyrrolo[2,1-f][1,2,4]triazin-2-yl]-amine] are less than 100 nM and less than 100 nM.
With `COc1cc(N2CCN(C)CC2)ccc1Nc1ncc2ccc(-c3cccnc3OC)n2n1` [Example 34, [2-Methoxy-4-(4-methyl-piperazin-1-yl)-phenyl]-[7-(2-methoxy-pyridin-3-yl)-pyrrolo[2,1-f][1,2,4]triazin-2-yl]-amine], the IC50 at ALK and on JAK2 was less than 100 nM in each case.
For `COc1cc(N2CCN(C)CC2)ccc1Nc1ncc2ccc(-c3ccccc3S(=O)(=O)N(C)C)n2n1` [Example 35, 2-{2-[2-Methoxy-4-(4-methyl-piperazin-1-yl)-phenylamino]-pyrrolo[2,1-f][1,2,4]triazin-7-yl}-N,N-dimethyl-benzenesulfonamide], the IC50 at ALK lay within 100 to 1000 nM; on JAK2 it was 1000 to 10000 nM.
For the compound `NC(=O)c1ccccc1-c1ccc2cnc(Nc3ccc(N4CCOCC4)cc3)nn12` [Example 36, 2-[2-(4-Morpholin-4-yl-phenylamino)-pyrrolo[2,1-f][1,2,4]triazin-7-yl]-benzamide], the IC50 on ALK is 1000 to 10000 nM; on JAK2 it was less than 100 nM.
